# Assay results as given in patent US9192559B2, “Compositions” (Givaudan SA, priority 2006, dated 2015).
# Legend:
# [1] = tested on: Aspergillus niger ATCC 16404 spores; assay: Sporicidal effect of test compounds in water; format: cell-based; conditions: 0.1% test compound in water; for Sporicidal effect (reduction of spore counts), in words: 7 days
# Experimental: Aspergillus niger ATCC 16404 spores are added to water to obtain a density of 3×10^5 spores/ml.
# In order to prepare the spores, the test strain is grown for 5 days on potato dextrose agar at room temperature. The spores are harvested with a solution containing 0.1% Tween 80, peptone 0.1% and NaCl 0.85% and the spore concentration is adjusted to the density indicated above.
# Test compounds are dissolved in dipropyleneglycol to a concentration of 20%.
# These stock solutions are added to 10 ml aliquots of the spore suspension to obtain a final concentration of the test compounds of 0.1%. The sporicidal effect is shown by a reduction of spore counts after 7 days.
# The reduction factor is determined as follows. Aliquots of the above prepared suspension of microorganisms (here: spore suspension prepared as described above) are plated on a suitable agar medium (see above) and the developing colonies are counted both for samples with test compound and for a negative probe (water). The count of the negative control is divided by the count of the test compound and thereby the reduction factor is determined. A negative control (water) accordingly has a reduction factor of 1 (no effect on the microorganism).
# [2] = tested on: Aspergillus niger ATCC 16404 spores; assay: Sporicidal activity in a preservative-free oil-in-water emulsion skin cream; format: cell-based; conditions: 0.1% 4-hydroxybenzaldehyde, 0% diol, listed as benzaldehyde derivative
# Experimental: (§1) A preservative-free oil-in-water emulsion skin cream is used. Test samples of cream are made up to contain different amounts of diol compounds and/or benzaldehyde derivatives. The diol compound and the benzaldehyde derivatives is added to an aliquot of 10 g of the cream in 50 ml tubes in a concentration as shown in the table below. After addition of the preservative/preservative enhancer, the cream is thoroughly mixed to achieve a homogeneous distribution. The cream is then stored for 1-3 days to equilibrate at room temperature (in order to achieve a homogenous partitioning of compounds between oil and water phase).
# (§2) For testing of sporicidal effect, to each sample 100 μl of a spore suspension of Aspergillus niger ATCC 16404 containing 3×10^7 spores/ml (prepared as described in example 1) is added.
# (§3) After regular test intervals, samples of 1 g cream are removed and added to 20 ml of a neutralizer solution containing 0.2% lecithin, 2% Tween 80 and 0.5% NaCl. These dilutions are vigorously shaken for 10 min until the cream is dissolved, and then aliquots of this solution are spread plated on potato dextrose agar containing 0.2% Tween 80. After 48 h to 72 h the number of surviving colony forming units (and therefore surviving spores) are counted.
# The count of the negative control is divided by the count of the probe and thereby the reduction factor is determined.
# A. niger spores = assay: Activity against A. niger spores in skin cream Cremor basalis; format: cell-based, Aspergillus niger
# Experimental: as §1, §2, §3
# The example is performed as described in example 2 except for the following changes:
# The preservative-free cosmetic cream for application to the human skin is Cremor basalis (commercially available from Fagron GmbH, Barsbüttel, Germany).
smiles,measurement,setting,value
CC(C)c1ccc(CO)cc1 [Cuminic alcohol],Spores/ml,[1]; after 7 days,>1.2 × 10^5 Spores/ml
same,Reduction factor,"[1]; after 7 days, count of negative control / count of test compound",<2
"CC(CC=O)CCc1ccccc1 (centres unmarked) [Mefranal, 3-methyl-5-phenylpentanal]","Sporicidal effect (reduction of spore counts), in words",[1],significant sporicidal effect
O=Cc1ccc(O)cc1 [4-hydroxybenzaldehyde],"Sporicidal effect (reduction of spore counts), in words",[1],No significant reduction of spore counts
same,reduction factor 7d fungal spores,[2],no sporicidal effect
same,"Reduction factor fungal spores, 7d",A. niger spores; 0.5% 4-hydroxybenzaldehyde on its own,57.6
same,"Reduction factor fungal spores, 7d","A. niger spores; no added diol, 0.125% 4-HBA",5.5
"CCCCCCC(O)CO (centres unmarked) [1,2-Octandiol, 1,2-octanediol]","Reduction factor fungal spores, 7d","A. niger spores; preservative 0.25%, no 4-HBA",2.2
"CC(CO)CO [2-Methyl-1,3-propandiol, 2-Methyl-1,3-propanediol]","Reduction factor fungal spores, 7d","A. niger spores; preservative 2%, no 4-HBA",3.3
same,"Reduction factor fungal spores, 7d","A. niger spores; preservative 4%, no 4-HBA",25.9
C=CCCCCCCCCO [9-decenol],"Sporicidal effect (reduction of spore counts), in words",[1],significant sporicidal effect
COc1ccc(C=O)cc1 [4-methoxy-benzaldehyde],"Sporicidal effect (reduction of spore counts), in words",[1],No significant reduction of spore counts
"CCCCC(CC)COCC(O)CO (centres unmarked) [3-(2-ethyl-hexyloxy)-1,2-propandiol, 3-(2-ethylhexyloxy)propane-1,2-diol]","Reduction factor fungal spores, 7d","A. niger spores; preservative 0.25%, no 4-HBA",3.9
same,"Reduction factor fungal spores, 7d","A. niger spores; preservative 0.5%, no 4-HBA",57.6
